Measurements as given in patent US20050239733A1, “Sequence requirements for inhibitory oligonucleotides” (Coley Pharmaceutical GmbH, priority 2003, published 2005).

How the values were obtained:
[1] = tested on: human PBMC; experiment: Inhibition of CpG ODN 2395-induced IFN-α secretion by human PBMC; type: cell-based; conditions: FIG. 9; 0.5 μM CpG ODN 2395, increasing ODN, 24 h
Description: In this set of experiments human PBMC were isolated from human blood and incubated in the presence of 0.5 μM CpG ODN 2395 ([…]; SEQ ID NO:30) and increasing concentrations of inhibitory ODN. CpG ODN 2395 induces high amounts of IFN-α in human PBMC through TLR9-mediated signaling. The secreted amount of IFN-α induced by CpG ODN 2395 after 24 h was set to 100%.

[2] = molecular target: T1, human TLR9 (Homo sapiens, UniProt Q9NR96); experiment: Inhibition of CpG ODN 2006-mediated NF-κB-luciferase activation in hTLR9-LUC-293 cells; conditions: for Percent 2006 Activity: equimolar 0.156 μM CpG ODN 2006 and inhibitory ODN; for inhibitory for TLR9: general statement 'found according to the present invention', conditions not given
T1 sequence (Q9NR96 26-1032): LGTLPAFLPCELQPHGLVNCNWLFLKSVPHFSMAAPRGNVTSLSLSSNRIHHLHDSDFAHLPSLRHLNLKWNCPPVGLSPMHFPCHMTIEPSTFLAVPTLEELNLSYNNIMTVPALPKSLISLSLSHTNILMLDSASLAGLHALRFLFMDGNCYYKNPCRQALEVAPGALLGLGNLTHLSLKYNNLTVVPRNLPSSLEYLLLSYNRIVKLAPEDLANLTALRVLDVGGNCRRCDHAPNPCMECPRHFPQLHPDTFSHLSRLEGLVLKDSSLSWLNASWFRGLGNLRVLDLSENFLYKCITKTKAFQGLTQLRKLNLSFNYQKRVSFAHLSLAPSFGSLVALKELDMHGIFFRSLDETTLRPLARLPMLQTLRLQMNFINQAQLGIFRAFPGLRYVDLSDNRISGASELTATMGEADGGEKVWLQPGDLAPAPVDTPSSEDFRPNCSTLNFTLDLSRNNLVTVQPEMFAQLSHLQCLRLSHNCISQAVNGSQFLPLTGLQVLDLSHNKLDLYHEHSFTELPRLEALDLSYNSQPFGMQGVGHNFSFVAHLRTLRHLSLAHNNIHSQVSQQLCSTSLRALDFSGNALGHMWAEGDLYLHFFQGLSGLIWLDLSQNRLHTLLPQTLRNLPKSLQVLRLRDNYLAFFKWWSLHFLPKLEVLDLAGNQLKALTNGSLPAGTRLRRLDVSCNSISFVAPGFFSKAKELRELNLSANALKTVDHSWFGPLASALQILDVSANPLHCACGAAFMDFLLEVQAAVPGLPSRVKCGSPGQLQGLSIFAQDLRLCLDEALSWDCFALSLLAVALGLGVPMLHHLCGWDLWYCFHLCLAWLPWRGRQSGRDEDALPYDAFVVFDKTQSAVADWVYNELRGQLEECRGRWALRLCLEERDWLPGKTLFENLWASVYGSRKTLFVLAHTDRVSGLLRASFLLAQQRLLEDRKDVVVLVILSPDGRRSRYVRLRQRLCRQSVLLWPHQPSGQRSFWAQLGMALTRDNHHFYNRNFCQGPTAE

[3] = molecular target: T2, human TLR8 (Homo sapiens, UniProt Q9NR97); experiment: Inhibition of R-848-mediated NF-κB-luciferase activation in hTLR8-LUC-293 cells; type: cell-based; conditions: for inhibitory for TLR8: general statement 'found according to the present invention', conditions not given
T2 construct: expressed in transfected cells
T2 sequence (Q9NR97 27-1041): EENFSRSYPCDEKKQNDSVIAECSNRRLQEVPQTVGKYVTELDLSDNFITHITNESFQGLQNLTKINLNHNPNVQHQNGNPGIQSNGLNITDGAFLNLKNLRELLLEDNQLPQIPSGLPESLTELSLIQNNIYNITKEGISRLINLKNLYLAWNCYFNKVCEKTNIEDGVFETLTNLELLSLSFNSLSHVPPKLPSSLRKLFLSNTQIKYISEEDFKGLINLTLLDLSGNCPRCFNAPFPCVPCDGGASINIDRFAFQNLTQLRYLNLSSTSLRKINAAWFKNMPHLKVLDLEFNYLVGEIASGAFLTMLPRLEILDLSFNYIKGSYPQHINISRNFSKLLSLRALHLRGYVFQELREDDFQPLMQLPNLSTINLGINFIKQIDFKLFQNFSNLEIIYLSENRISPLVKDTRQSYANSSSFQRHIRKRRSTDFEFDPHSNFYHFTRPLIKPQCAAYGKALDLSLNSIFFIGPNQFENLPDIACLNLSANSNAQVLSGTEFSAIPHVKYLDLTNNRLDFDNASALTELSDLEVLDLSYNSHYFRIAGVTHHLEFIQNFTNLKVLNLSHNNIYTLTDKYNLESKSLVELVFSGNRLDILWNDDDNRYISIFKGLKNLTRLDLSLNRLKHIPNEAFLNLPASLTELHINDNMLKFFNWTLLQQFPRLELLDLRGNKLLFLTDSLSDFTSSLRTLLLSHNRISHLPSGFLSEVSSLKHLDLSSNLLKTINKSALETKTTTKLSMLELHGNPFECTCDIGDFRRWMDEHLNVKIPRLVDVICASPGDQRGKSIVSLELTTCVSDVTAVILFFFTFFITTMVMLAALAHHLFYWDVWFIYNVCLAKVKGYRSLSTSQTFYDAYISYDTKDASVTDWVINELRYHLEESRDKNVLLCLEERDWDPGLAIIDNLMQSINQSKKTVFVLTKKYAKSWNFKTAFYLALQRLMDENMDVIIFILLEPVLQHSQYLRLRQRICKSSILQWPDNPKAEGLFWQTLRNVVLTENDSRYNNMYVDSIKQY
Description: The previous examples describe the ability of certain inhibitory ODN to inhibit activation of signal transduction mediated by human Toll-like receptor 9 (hTLR9). […] The assay system involved stimulating hTLR8-LUC-293 cells with the TLR8 ligand, R-848 (Resiquimod; Jurk M et al. (2002) Nat Immunol 3:499) in the presence and absence of ODN and comparing the induction of luciferase activity in the absence of ODN to luciferase activity in the presence of ODN.
Cells were assayed for luciferase activity 16 h later. Results were calculated as fold induction above medium background.
Luciferase activity was assayed after 16 h.
hTLR8-LUC-293 cells were incubated with 50 μM R-848 in the presence of increasing concentrations of the following ODN: ODN 2088, D13GT (whererin D is dSpacer), GTN13, N6GTN7, random 15-mer N15, N13GT, and the dinucleotide GT. Luciferase activity was assayed after 16 h. Luciferase activity of R-848 without any ODN was set to 100% (without correction for medium background, i.e. background activity of medium remained at approx. 17%).
Luciferase activity was assayed after 16 h. Luciferase activity of R-848 without any ODN was set to 100% (without correction for medium background, i.e., background activity of medium remained at approx. 17%).
In yet a further set of experiments hTLR8-LUC-293 cells were incubated with 50 μM R-848 in the presence of increasing amounts of different dinucleotides (GT, ODN 603; TG, ODN 688; GG, ODN 689; GU, ODN 690; UG, ODN 691; AT, ODN 692; and TT, ODN 693). Luciferase was assayed after 16 h. Luciferase activity of R-848 without any ODN was set to 100% and remaining R-848-mediated NF-κB activation in the presence of dinucleotides or ODN 2088 was calculated. Medium background was 17% in this set of experiments.
hTLR-LUC-293 cells (expressing the respective humanTLR7, TLR8, or TLR9) were incubated with constant amounts of TLR-agonist (for hTLR7: 2 μM R-848, for hTLR8: 50 μM R-848, and for hTLR9: 0.156 μM CpG ODN 2006) and increasing amounts of TLR-antagonist. […] To compare data for different TLRs, percent remaining activity of agonist was plotted against the log of molar ratio of antagonist to agonist (e.g., for hTLR8: 50 μM R-848 and 5 μM ODN, the plotted ratio is 10^−1). Used ODN concentrations were: for hTLR7 and hTLR8, 5 μM, 0.5 μM, 0.05 μM, and 0.005 μM, and for hTLR9, 2.5 μM, 0.156 μM, 0.0098 μM and 0.00061 μM.

[4] = Table 3 (nucleotides flanking 5′ CC, truncations)

CCTTGTTGGG (DNA, backbone and methylation of C not given here) [ODN 223]
inhibition of IFN-α production in human PBMC, in words [1]: inhibited

NNNNNNNNNNNNNGT [ODN 467]
inhibition of IFN-α production in human PBMC, in words [1]: not

TCCGGGCGGGGAAGT (DNA, backbone and methylation of C not given here) [ODN 156]
Percent 2006 Activity [2, 4]: 10% | inhibitory for TLR9 [2]: inhibitory | inhibitory for TLR8 [3]: inhibitory

GCCTGGCGGGGAAGT (DNA, backbone and methylation of C not given here) [ODN 940]
Percent 2006 Activity [2, 4]: 13% | inhibitory for TLR9 [2]: inhibitory | inhibitory for TLR8 [3]: inhibitory

TGTTGGCGGGGAAGT (listed as DNA, chemistry not given here) [ODN 445]
Percent 2006 Activity ([2]; Table 2 (5′ CC replaced by other dinucleotides)): 97% | inhibitory for TLR8 [3]: inhibitory

CTGGCGGGGAAGT (DNA, backbone and methylation of C not given here) [ODN 962]
Percent 2006 Activity [2, 4]: 122% | inhibition of hTLR8 (R-848 activity), in words ([3]; 50 μM R-848, increasing ODN (up to 5 μM), 16 h): specific inhibition

CCTCAAGCTTGAGGGG [SEQ ID NO:13]
inhibitory for TLR9 [2]: inhibitory | inhibitory for TLR8 [3]: not for TLR8

TCCCGGCGGGGAAGT (DNA, backbone and methylation of C not given here) [ODN 155]
Percent 2006 Activity [2, 4]: 11% | inhibitory for TLR9 [2]: inhibitory | inhibitory for TLR8 [3]: inhibitory

TCCTGGAGGGGAAGT (DNA, backbone and methylation of C not given here) [ODN 2114]
inhibitory for TLR9 [2]: inhibitory | inhibitory for TLR8 [3]: inhibitory
